The values that follow come from ChEMBL document CHEMBL1140512, “N-Alkylidenearylcarboxamides as new potent and selective CB(2) cannabinoid receptor agonists with good oral bioavailability” (Bioorg Med Chem Lett, 2007).

Data set [1] has as its target Cannabinoid receptor 1 (Homo sapiens, UniProt P21554). Kind of data set: Displacement of [3H]CP-55940 form human CB1 receptor expressed in CHO cells. In kind it is cell-based.
In data set [2] the target is T1, Cannabinoid receptor 2 (Homo sapiens, UniProt P34972). Put plainly: Agonist activity at human CB2 receptor expressed in CHO cells by [35S]GTP-gamma-S binding assay. The format is functional, cell-based. On the technique in general: GTPγS resists hydrolysis and so accumulates on activated G proteins.
Data set [3] deals with T1, Cannabinoid receptor 2. Kind of data set: Efficacy at human CB2 receptor expressed in CHO cells by [35S]GTP-gamma-S binding assay relative to CP-55940. In kind it is functional, cell-based.
The nature of data set [4]: Metabolic stability in human liver microsomes assessed as parent compound remaining after 15 mins. In kind it is ADME, Microsome. Particulars: read-out: Stability.
Data set [5] deals with T1, Cannabinoid receptor 2. Kind of data set: Displacement of [3H]CP-55940 form human CB2 receptor expressed in CHO cells. In kind it is cell-based. (Displacement assays read how much labelled ligand stays bound in the presence of the test substance.)
For data set [6], the species on record is Homo sapiens. Kind of data set: Selectivity for human CB2 receptor over CB1 receptor.
A short description of data set [7]: AUC (0 to 24 hrs) in rat at 10 mg/kg, po. The following applies: plasma. The format is ADME, organism-based. Further details: time < 24 hr, dose 10 mg/kg, route oral.
Data set [8] is described as follows: Cmax in rat at 10 mg/kg, po. Also on record: dose 10 mg/kg, route oral. The following applies: in vivo. In kind it is ADME, organism-based.
Data set [9] is described as follows: Half life in rat at 10 mg/kg, po. The following applies: in vivo. In kind it is ADME, organism-based. Also on record: dose 10 mg/kg, route oral.
Data set [10] in a line: Tmax in rat at 10 mg/kg, po. Particulars: in vivo. In kind it is ADME, organism-based. Further details: dose 10 mg/kg, route oral.
Data set [11] is described as follows: Half life in rat at 30 mg/kg, po. The format is ADME, organism-based. Also on record: dose 30 mg/kg, route oral. Particulars: in vivo.
The nature of data set [12]: Tmax in rat at 3 mg/kg, po. In kind it is ADME, organism-based. Further details: dose 3 mg/kg, route oral. The following applies: in vivo.
A short description of data set [13]: Oral bioavailability in rat at 3 mg/kg, po. In kind it is ADME, organism-based. Particulars: in vivo.
A short description of data set [14]: AUC (0 to 24 hrs) in rat at 3 mg/kg, po. The format is ADME, organism-based. Also on record: time < 24 hr, dose 3 mg/kg, route oral. The following applies: plasma.
The nature of data set [15]: Cmax in rat at 3 mg/kg, po. The format is ADME, organism-based. Further details: dose 3 mg/kg, route oral. Particulars: in vivo.
Data set [16] in a line: Half life in rat at 3 mg/kg, po. The format is ADME, organism-based. Further details: dose 3 mg/kg, route oral. The following applies: in vivo.
Data set [17] in a line: AUC (0 to 24 hrs) in rat at 30 mg/kg, po. The following applies: plasma. The format is ADME, organism-based. Also on record: time < 24 hr, dose 30 mg/kg, route oral.
Data set [18] in a line: Cmax in rat at 30 mg/kg, po. The format is ADME, organism-based. Further details: dose 30 mg/kg, route oral. The following applies: in vivo.
Data set [19] is described as follows: Tmax in rat at 30 mg/kg, po. In kind it is ADME, organism-based. Further details: dose 30 mg/kg, route oral. Particulars: in vivo.
The target of data set [20] is T1, Cannabinoid receptor 2. Put plainly: Displacement of [3H]CP-55940 form human CB2 receptor expressed in CHO cells at 100 nM. The format is cell-based.

Sequence of Cannabinoid receptor 1 (P21554 whole entry): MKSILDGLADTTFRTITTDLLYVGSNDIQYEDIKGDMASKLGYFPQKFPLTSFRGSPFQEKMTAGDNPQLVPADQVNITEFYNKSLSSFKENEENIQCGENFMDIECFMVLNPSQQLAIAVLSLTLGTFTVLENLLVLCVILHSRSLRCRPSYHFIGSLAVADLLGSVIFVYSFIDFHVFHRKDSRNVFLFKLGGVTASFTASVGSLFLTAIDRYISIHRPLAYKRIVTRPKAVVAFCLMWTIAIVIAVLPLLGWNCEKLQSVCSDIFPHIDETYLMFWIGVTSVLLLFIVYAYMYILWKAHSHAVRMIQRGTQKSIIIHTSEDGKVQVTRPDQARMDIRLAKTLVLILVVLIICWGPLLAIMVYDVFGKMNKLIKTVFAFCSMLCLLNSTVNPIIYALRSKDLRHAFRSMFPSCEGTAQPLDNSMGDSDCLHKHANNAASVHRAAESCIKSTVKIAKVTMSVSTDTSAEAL
T1 sequence (P34972 whole entry): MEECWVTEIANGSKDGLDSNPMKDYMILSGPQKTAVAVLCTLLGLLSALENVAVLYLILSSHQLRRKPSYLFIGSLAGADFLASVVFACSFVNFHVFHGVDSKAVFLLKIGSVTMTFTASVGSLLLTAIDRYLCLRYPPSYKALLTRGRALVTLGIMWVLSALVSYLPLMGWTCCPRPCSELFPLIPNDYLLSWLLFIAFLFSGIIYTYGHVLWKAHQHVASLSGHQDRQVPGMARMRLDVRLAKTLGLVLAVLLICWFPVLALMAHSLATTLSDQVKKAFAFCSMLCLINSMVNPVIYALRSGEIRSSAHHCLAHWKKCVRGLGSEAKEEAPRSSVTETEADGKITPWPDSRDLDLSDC

Usually IC50 stands for the midpoint of a concentration-inhibition curve. What is called EC50 is the concentration at which the effect is half-maximal. Low values mean higher potency in that assay, high ones lower potency in that assay. The term Emax denotes the greatest response seen or fitted, relative to the assay's reference. `CCOCCn1c(C)c(C(C)(C)C)s/c1=N\C(=O)c1cccc(C(F)(F)F)c1`: the half-maximal inhibitory concentration (IC50) in [1] was 690 nM. The molecule further showed an EC50 in data set [2] of 2 nM. The same molecule registered a maximal response (Emax) in [3] of 45%.
As to `Cc1c(C(C)(C)C)s/c(=N\C(=O)c2cccc(N(C)C)c2)n1CC1CC1`, the remaining at 0.25 h in data set [4] amounted to 44%. Further, the IC50 in [5] stood at 17 nM.
For the molecule `CCn1c(C)c(C(C)(C)C)s/c1=N\C(=O)c1cccc(C(F)(F)F)c1`, in data set [5], the IC50 was found to be 74 nM.
In turn, `Cc1c(C(C)(C)C)s/c(=N\C(=O)c2cc(C(F)(F)F)ccc2F)n1CC1CC1` had an IC50 in data set [1] of 1500 nM. The EC50 in [2] is 1.5 nM. The same molecule came in with an Emax in data set [3] of 85%. Besides, the Ratio IC50 in [6] turned out to be 440.
For the molecule `CCCn1c(C)c(C(C)(C)C)s/c1=N\C(=O)c1cccc(C(F)(F)F)c1`, the IC50 in data set [5] is 46 nM.
The AUC(0-t) is exposure summed from dosing to a finite time, without extrapolation to infinity. By Cmax is commonly meant the maximum level reached in the sampled fluid or tissue. One may read the half-life as the time in which the quantity being followed falls by half. A word on the Tmax: it is the time from dosing to the highest level. Regarding `COc1ccc(C(F)(F)F)cc1C(=O)/N=c1\sc(C(C)(C)C)c(C)n1CC1CC1`, in data set [7], the AUC(0-t) at 24 h amounted to 1120 ng·h/mL. In [8], this molecule registered a peak concentration (Cmax) of 148 ng/mL. For the same molecule, in [9], the half-life was 244 min. In addition, the IC50 was found to be 1900 nM in data set [1] and 1.2 nM in data set [5]. Also, it took 0.62 nM to reach a half-maximal effect in data set [2] (EC50). In data set [4], the remaining at 0.25 h amounted to 85%. In addition, in data set [3], the maximum response (Emax) stood at 100%. Moreover, the time of peak concentration (Tmax) in data set [10] was found to be 1 h. Moreover, in [6], the Ratio IC50 was determined as 1600.
As usually defined, the bioavailability is the share of a dose that reaches the circulation, judged against a reference dose that is usually intravenous. A lower bioavailability goes with little systemic uptake. On to `Cc1c(C(C)(C)C)s/c(=N\C(=O)c2cccc(C(F)(F)F)c2)n1CC1CC1`, for which the values for the half-life in data set [11], in data set [9] and in [16] were 282 min, 298 min and 288 min, respectively. Also, the time to peak (Tmax) was 1.67 h in [12], 2.67 h in data set [19] and 2 h in data set [10]. Further, the AUC(0-t) at 24 h stood at 2050 ng·h/mL in [7], 326 ng·h/mL in data set [14] and 4240 ng·h/mL in data set [17]. Further, the bioavailability in data set [13] was found to be 52%. The Cmax in data set [8] was found to be 223 ng/mL; in data set [15] it was 43.1 ng/mL; in data set [18], 498 ng/mL. The IC50 came out at 3500 nM in [1] and 13 nM in data set [5]. In addition, the concentration for a half-maximal effect (EC50) in data set [2] worked out at 10 nM. The Ratio IC50 in data set [6] came out at 270.
Turning to `Cc1c(C(C)(C)C)s/c(=N\C(=O)c2cccc(OC(F)(F)F)c2)n1CC1CC1`, the IC50 in data set [1] was found to be 1100 nM; in data set [5] it was 5.7 nM. This molecule returned an EC50 in [2] of 7.6 nM. The Emax in [3] amounted to 72%.
As a reminder, the inhibition is the relative decrease from the control value, in per cent. Lower therefore signals a response near the control. Consider `Cc1c(C(C)(C)C)s/c(=N\C(=O)c2cc(C(F)(F)F)cc(C(F)(F)F)c2)n1CC1CC1`, for which, in data set [20], the inhibition stood at 10%.
Consider `Cc1cccc(C(=O)/N=c2\sc(C(C)(C)C)c(C)n2CC2CC2)c1`, for which, in [5], the IC50 stood at 22 nM.
As for `Cc1c(C(C)(C)C)s/c(=N\C(=O)c2cc(C(F)(F)F)ccc2N(C)C)n1CC1CC1`, the results for the IC50 in [1] and in data set [5] were greater than 10000 nM and 9.4 nM, respectively. In data set [2], this molecule gave a half-maximal effective concentration (EC50) of 7.3 nM. In data set [3], the maximal effect (Emax) came out at 89%. The Ratio IC50 in data set [6] was greater than 1000.
For `Cc1c(C(C)(C)C)s/c(=N\C(=O)c2cccc(Br)c2)n1CC1CC1`, the half-maximal inhibitory concentration (IC50) in [1] turned out to be 53 nM; in data set [5], 1.2 nM. The molecule further had a half-maximal effective concentration (EC50) in data set [2] of 0.3 nM. The same molecule returned a maximal effect (Emax) in [3] of 96%.
As to `Cc1c(C(C)(C)C)s/c(=N\C(=O)c2ccc(C(F)(F)F)cc2)n1CC1CC1`, the inhibition in data set [20] is 24%.
In the case of `Cc1ccc(C(F)(F)F)cc1C(=O)/N=c1\sc(C(C)(C)C)c(C)n1CC1CC1`, the IC50 in [1] came out at 1200 nM; in data set [5] it was 2.1 nM. The same molecule displayed an EC50 in data set [2] of 2.7 nM. The molecule also gave a maximal response (Emax) in data set [3] of 99%. Besides, the Ratio IC50 in data set [6] was 570.
Turning to `Cc1c(C(C)(C)C)s/c(=N\C(=O)c2ccccc2C(F)(F)F)n1CC1CC1`, the concentration for half-maximal inhibition (IC50) in [1] is 140 nM.
Take `Cc1c(C(C)(C)C)s/c(=N\C(=O)c2ccccc2)n1CC1CC1`: the midpoint of the response in data set [2], the EC50, lay at 86 nM. This molecule registered an Emax in data set [3] of 100%. The molecule further showed an IC50 in data set [5] of 260 nM.
Turning to `Cc1c(C(C)(C)C)s/c(=N\C(=O)c2cccc(F)c2)n1CC1CC1`, in data set [20], the inhibition turned out to be 44%.
`Cc1c(C(C)(C)C)s/c(=N\C(=O)c2cccc(C(F)(F)F)c2)n1C` gave a concentration for half-maximal inhibition (IC50) in data set [5] of 220 nM.
On the same count and under the same terms, the same measure for `Cc1s/c(=N\C(=O)c2cccc(C(F)(F)F)c2)n(CC2CC2)c1C`: 25 nM; for `COc1cccc(C(=O)/N=c2\sc(C(C)(C)C)c(C)n2CC2CC2)c1`: 24 nM.
For the molecule `Cc1c(C(C)(C)C)s/c(=N\C(=O)c2cc(C(F)(F)F)ccc2Cl)n1CC1CC1`, the IC50 in [1] was determined as 830 nM; in data set [5], 2.1 nM. This molecule also registered a half-maximal effective concentration (EC50) in data set [2] of 4 nM. For the same molecule, the maximum response (Emax) in data set [3] is 95%.
In data set [5], `Cc1c(C(C)(C)C)s/c(=N\C(=O)c2cccc(C(F)(F)F)c2Cl)n1CC1CC1` displayed a half-maximal inhibitory concentration (IC50) of 0.41 nM.
The same measure, in the same setting: as for `Cc1c(C(C)C)s/c(=N\C(=O)c2cccc(C(F)(F)F)c2)n1CC1CC1`, the figure is 29 nM; as for `Cc1c(C(C)(C)C)s/c(=N\C(=O)c2ccc(Cl)c(C(F)(F)F)c2)n1CC1CC1`, 230 nM; as for `CCOC(=O)c1s/c(=N\C(=O)c2cccc(C(F)(F)F)c2)n(CC2CC2)c1C`, 110 nM.
With `COCCn1c(C)c(C(C)(C)C)s/c1=N\C(=O)c1cccc(C(F)(F)F)c1`, the concentration for half-maximal inhibition (IC50) in data set [1] was 4100 nM; in [5] it was 10 nM. In addition, in data set [2], a half-maximal effect (EC50) was put at 5.6 nM. This molecule also had an Emax in data set [3] of 59%.
Molecule `Cc1c(C(=O)N(C)C)s/c(=N\C(=O)c2cccc(C(F)(F)F)c2)n1CC1CC1` displayed a half-inhibitory concentration (IC50) in data set [5] of 1000 nM.
`Cc1c(C(C)(C)C)s/c(=N\C(=O)c2cccc(Cl)c2)n1CC1CC1` showed an IC50 in [5] of 20 nM.
